Molecules are shown by their SMILES.

Data on eight compounds can be found in patent US20260250289A1, “BICYCLIC HETEROCYCLES AND THEIR USE AS WRN INHIBITORS” (Novartis AG, priority 2022, published 2026).

The test system of one test is DLD1-WRN-KO cells. Put plainly: Proliferation assay DLD1-WRN-KO (CellTiterGlo, off-target effects). The format is cell-based. The conditions noted are these: 96 hours, geometric mean of at least 2. The method, boiled down:
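DLD1 cells with CRISPR knockout of WRN were exposed overnight-seeded to eight 3-fold compound dilutions (0.1% DMSO) for 96 h at 37 °C. Viability was read as ATP by CellTiterGlo luminescence against a day-0 plate, giving GI50 and residual viability at top concentration.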
(Cellular ATP, detected with luciferase, serves as a proxy for viable cell number.)

The target in test [1] is T1, WRN helicase (aa N517-P1238) (Homo sapiens, UniProt Q14191).
T1 construct: The core helicase motif of the WRN protein (aa N517-P1238) was produced for this assay; His (N); ZZ (N); 3C protease cleavage site (N); made in house; host or cells: Sf21 insect cells (baculovirus; virus and BIICs made in SF9)
Put plainly: WRN ATPase assay (DNA dependent ATP hydrolysis, ADP-Glo). The format is biochemical. The conditions noted are these: 3 hours pre-incubation, 300 micromolar ATP, FLAP26 DNA; geometric mean of at least 2. The method, boiled down: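 DNA-dependent ATP hydrolysis detected as ADP by ADP-Glo luminescence, using 300 μM ATP, 0.2 nM FLAP26 substrate and 10 nM WRN aa N517-P1238 (Tris pH 7.5 buffer, 2 mM MgCl2, 50 mM NaCl). IC50s fitted from normalized duplicate half-log dilutions; reported as geometric means of at least 2 replicates.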

For another test, the system named is SW48 cells. Put plainly: Proliferation assay SW48 (CellTiterGlo). It is filed as cell-based. As to conditions: Homo sapiens, SW48, 96 h, SW48 colon carcinoma cells, 96 hours, CellTiterGlo; geometric mean of at least 2; read-out: Proliferation Assay SW48 GI50. The method, boiled down: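 SW48 cells, 2,000/well, treated after overnight seeding with eight 3-fold compound dilutions (0.1% DMSO) for 96 hours at 37° C. Viability read as ATP by CellTiterGlo luminescence, normalised to a day-0 plate and vehicle to give % growth; GI50 is geometric mean of ≥2 independent replicates.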

T1 sequence (Q14191 517-1238): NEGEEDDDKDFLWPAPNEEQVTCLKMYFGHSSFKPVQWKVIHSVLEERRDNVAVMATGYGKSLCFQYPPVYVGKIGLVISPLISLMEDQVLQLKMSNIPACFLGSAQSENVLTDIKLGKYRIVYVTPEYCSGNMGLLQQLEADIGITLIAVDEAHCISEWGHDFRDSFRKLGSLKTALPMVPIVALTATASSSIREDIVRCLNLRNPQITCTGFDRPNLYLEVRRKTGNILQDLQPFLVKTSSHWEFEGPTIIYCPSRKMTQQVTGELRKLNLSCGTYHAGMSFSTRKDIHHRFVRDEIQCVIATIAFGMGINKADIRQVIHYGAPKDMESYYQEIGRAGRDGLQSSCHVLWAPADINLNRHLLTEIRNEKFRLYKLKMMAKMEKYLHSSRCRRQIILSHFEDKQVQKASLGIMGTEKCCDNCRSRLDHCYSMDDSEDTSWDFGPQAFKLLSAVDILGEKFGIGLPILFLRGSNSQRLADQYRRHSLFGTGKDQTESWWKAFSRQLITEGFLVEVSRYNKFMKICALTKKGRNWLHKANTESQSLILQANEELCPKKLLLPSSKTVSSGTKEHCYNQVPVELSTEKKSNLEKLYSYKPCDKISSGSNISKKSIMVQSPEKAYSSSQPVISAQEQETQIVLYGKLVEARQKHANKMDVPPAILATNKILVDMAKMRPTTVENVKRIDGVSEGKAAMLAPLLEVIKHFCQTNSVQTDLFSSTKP

One may read the IC50 as the midpoint of a concentration-inhibition curve. Turning to `CC(=O)N1CCN(c2c(C)n(CC(=O)Nc3ccc(C(F)(F)F)cc3)c3nc(C4=CCCC4)nn3c2=O)CC1` [Example 110, 2-(6-(4-acetylpiperazin-1-yl)-2-(cyclopent-1-en-1-yl)-5-methyl-7-oxo-[1,2,4]triazolo[1,5-a]pyrimidin-4(7H)-yl)-N-(4-(trifluoromethyl)phenyl)acetamide], the GI50 in the test on DLD1-WRN-KO cells was > 10 µM; with SW48 cells, 5 µM. Also, the IC50 in test [1] turned out to be 200 nM.

For the compound `CC(=O)N1CCN(c2c(C)n(CC(=O)Nc3ccc(C(F)(F)F)cc3)c3nc(N4CCC(N(C)CC(F)F)CC4)nn3c2=O)CC1` [Example 113, 2-(6-(4-acetylpiperazin-1-yl)-2-(4-((2,2-difluoroethyl)(methyl)amino)piperidin-1-yl)-5-methyl-7-oxo-[1,2,4]triazolo[1,5-a]pyrimidin-4(7H)-yl)-N-(4-(trifluoromethyl)phenyl)acetamide], the GI50 is > 10 µM in the test on DLD1-WRN-KO cells and 5 µM in the test on SW48 cells. Also, it took 300 nM to reach half-maximal inhibition in test [1] (IC50).

With `CC(=O)N1CCN(c2c(C)n(CC(=O)Nc3ccc(C(F)(F)F)cc3)c3nc(C4=CCC(N5CC(F)(F)C5)CC4)nn3c2=O)CC1` (stereo not drawn) [Example 114, 2-(6-(4-acetylpiperazin-1-yl)-2-(4-(3,3-difluoroazetidin-1-yl)cyclohex-1-en-1-yl)-5-methyl-7-oxo-[1,2,4]triazolo[1,5-a]pyrimidin-4(7H)-yl)-N-(4-(trifluoromethyl)phenyl) acetamide], the GI50 in the test with DLD1-WRN-KO cells was > 10 µM; with SW48 cells, 2 µM. In addition, in test [1], half-maximal inhibition (IC50) required 400 nM.

As to `CC(=O)N1CCN(c2c(C)n(CC(=O)Nc3ccc(C(F)(F)F)cc3)c3nc(-c4ccccn4)nn3c2=O)CC1` [Example 115, 2-(6-(4-acetylpiperazin-1-yl)-5-methyl-7-oxo-2-(pyridin-2-yl)-[1,2,4]triazolo[1,5-a]pyrimidin-4(7H)-yl)-N-(4-(trifluoromethyl)phenyl)acetamide], the results for the GI50 with DLD1-WRN-KO cells and in the test on SW48 cells were 5 µM and 2 µM, respectively. This compound returned an IC50 in test [1] of 500 nM.

Consider `CC(=O)N1CCN(c2c(C)n(CC(=O)Nc3ccc(C(F)(F)F)cc3)c3nc(C4=CCC(F)(F)CC4)nn3c2=O)CC1` [Example 118, 2-(6-(4-acetylpiperazin-1-yl)-2-(4,4-difluorocyclohex-1-en-1-yl)-5-methyl-7-oxo-[1,2,4]triazolo[1,5-a]pyrimidin-4(7H)-yl)-N-(4-(trifluoromethyl)phenyl)acetamide], for which the GI50 is > 10 µM in the test with DLD1-WRN-KO cells and 9 µM in the test with SW48 cells. In test [1], the IC50 was found to be 600 nM.

Regarding `CC(=O)N1CCN(c2c(C)n(CC(=O)Nc3ccc(C(F)(F)F)cc3)c3nc(C4=CCN(CC(F)F)CC4)nn3c2=O)CC1` [Example 119, 2-(6-(4-acetylpiperazin-1-yl)-2-(1-(2,2-difluoroethyl)-1,2,3,6-tetrahydropyridin-4-yl)-5-methyl-7-oxo-[1,2,4]triazolo[1,5-a]pyrimidin-4(7H)-yl)-N-(4-(trifluoromethyl)phenyl)acetamide], the GI50 is > 10 µM in the test on DLD1-WRN-KO cells and 6 µM with SW48 cells. For the same compound, in test [1], it took 600 nM to reach half-maximal inhibition (IC50).

For the compound `COCC1=CCN(c2nc3n(CC(=O)Nc4ccc(C(F)(F)F)cc4)c(C)c(N4CCN(C(C)=O)CC4)c(=O)n3n2)CC1` [Example 120, 2-(6-(4-acetylpiperazin-1-yl)-2-(4-(methoxymethyl)-3,6-dihydropyridin-1(2H)-yl)-5-methyl-7-oxo-[1,2,4]triazolo[1,5-a]pyrimidin-4(7H)-yl)-N-(4-(trifluoromethyl)phenyl)acetamide], the GI50 was > 10 µM in the test on DLD1-WRN-KO cells and 6 µM with SW48 cells. In test [1], it took 600 nM to reach half-maximal inhibition (IC50).

For `CC(=O)N1CCN(c2c(C)n(CC(=O)Nc3ccc(C(F)(F)F)cc3)c3nc(N4CC=CCC4)nn3c2=O)CC1` [Example 121, 2-(6-(4-acetylpiperazin-1-yl)-2-(3,6-dihydropyridin-1(2H)-yl)-5-methyl-7-oxo-[1,2,4]triazolo[1,5-a]pyrimidin-4(7H)-yl)-N-(4-(trifluoromethyl)phenyl)acetamide], the results for the GI50 with DLD1-WRN-KO cells and with SW48 cells were > 10 µM and 5 µM, respectively. In test [1], this compound came in with an IC50 of 700 nM.
